Data reported in US11584744B2 (UNIVERSITY OF WASHINGTON, priority 2017, dated 2023).
Values after ≈ are worked out from the molar mass of the structure shown. Read-outs that look alike come from different tables or passages of the source.

Tests used:
[1] = target: recombinant S. aureus MetRS enzyme (Staphylococcus aureus, UniProt A0A0H2XID2); test: Inhibition of SaMetRS, ATP depletion assay; assay type: biochemical
How it was run: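 N-terminal 6-His S. aureus MetRS (25 nM) was pre-incubated 15 min at room temperature with compound, 400 μg/mL E. coli tRNA and pyrophosphatase in HEPES-KOH pH 7.9, 2% DMSO. Reaction started with 150 nM ATP plus 20 μM L-methionine, ran 120 min; remaining ATP read by Kinase-Glo luminescence, IC50 by sigmoidal nonlinear regression.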

[2] = test system: S. aureus MSSA (ATCC 29213); test: MIC susceptibility testing; assay type: cell-based, Staphylococcus aureus; conditions: for MIC: Staphylococcus aureus
[3] = test system: E. faecalis (ATCC 29212); test: MIC susceptibility testing; assay type: cell-based; conditions: Enterococcus faecalis, ATCC29212; read-out: E. faecalis (ATCC 29212) MIC
[4] = test system: E. faecium (ATCC 19434); test: MIC susceptibility testing; assay type: cell-based; conditions: Enterococcus faecium, ATCC19434; read-out: E. faecium (ATCC 19434) MIC
How it was run: (§1)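 CLSI broth microdilution in triplicate, 5×10^5 CFU/mL final, ≤0.5% DMSO; MHB for S. aureus, CA-MHB for E. coli and E. faecium, CA-MHB plus 3% laked horse blood for S. pyogenes (5% CO2).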

[5] = test system: S. aureus MRSA (ATCC 43300); test: MIC susceptibility testing; assay type: cell-based; conditions: Staphylococcus aureus; read-out: S. aureus MRSA (ATCC 43300) MIC
How it was run: as §1

[6] = test system: E. faecium VRE (ATCC 51559); test: MIC susceptibility testing; assay type: cell-based, Enterococcus faecium; conditions: for MIC: Enterococcus faecium
How it was run: as §1

[7] = Cytotoxicity testing on mammalian cells (AlamarBlue, 48 hours); assay type: cell-based; conditions: human
Experimental: Cytotoxicity testing on mammalian cells: Compounds were assayed for cytotoxicity against CRL-8155 (human lymphoblasts) and HepG2 cells (human hepatocellular carcinoma). Cells were exposed to serial dilutions of compounds for 48 hours and toxicity was quantified using AlamarBlue (ThermoFisher Scientific, Waltham, Mass.). Assays were performed in quadruplicate and EC50 values were calculated with non-linear regression methods using software by the Collaborative Drug Database (Burlingame, Calif. www.collaborativedrug.com)

[8] = Liver microsome stability; assay type: in vitro ADME
Experimental: Microsome stability. Liver microsome stability assays were done by contract research laboratory, Wuxi AppTec Co. (Hubei, China). Briefly, compounds at 1 μM concentration were incubated in singlet with human or CD-1 mouse liver microsomes for 6 time points (0, 5, 10, 20, 30, and 60 min). Loss of parent compound was quantified by liquid chromatography/tandem mass spectrometry.

[9] = test system: S. aureus MRSA (ATCC 33591); test: MIC susceptibility testing; assay type: cell-based, Staphylococcus aureus; conditions: MRSA ATCC33591; for MIC: Staphylococcus aureus, read-out: (G) MRSA (ATCC33591) MIC
How it was run: as §1

[10] = target: T1, MetRS (T. brucei) (Trypanosoma brucei brucei, UniProt Q38C91); test: MetRS (T. brucei) enzyme inhibition; assay type: biochemical
T1 sequence (Q38C91 1-773): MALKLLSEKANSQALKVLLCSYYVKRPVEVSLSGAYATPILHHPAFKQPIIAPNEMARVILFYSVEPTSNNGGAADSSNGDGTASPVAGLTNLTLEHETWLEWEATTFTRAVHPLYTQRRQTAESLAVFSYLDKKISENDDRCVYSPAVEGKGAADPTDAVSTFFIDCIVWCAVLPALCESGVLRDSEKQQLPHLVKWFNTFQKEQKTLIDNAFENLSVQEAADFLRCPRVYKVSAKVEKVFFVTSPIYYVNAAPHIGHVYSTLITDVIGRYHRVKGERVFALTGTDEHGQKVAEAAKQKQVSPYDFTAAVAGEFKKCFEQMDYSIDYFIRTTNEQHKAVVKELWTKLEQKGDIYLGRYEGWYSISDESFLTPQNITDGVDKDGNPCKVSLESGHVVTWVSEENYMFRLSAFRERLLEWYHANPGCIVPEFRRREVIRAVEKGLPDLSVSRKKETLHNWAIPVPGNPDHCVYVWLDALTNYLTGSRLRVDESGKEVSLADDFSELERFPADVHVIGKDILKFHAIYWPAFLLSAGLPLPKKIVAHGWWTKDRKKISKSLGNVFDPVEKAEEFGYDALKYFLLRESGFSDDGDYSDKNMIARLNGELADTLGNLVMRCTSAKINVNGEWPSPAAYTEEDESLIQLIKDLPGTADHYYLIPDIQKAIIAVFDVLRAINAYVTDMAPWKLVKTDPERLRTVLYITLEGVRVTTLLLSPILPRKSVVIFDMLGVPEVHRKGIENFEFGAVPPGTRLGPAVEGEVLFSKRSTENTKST

[11] = target: MetRS (C. parvum) (Cryptosporidium parvum, UniProt Q5CVN0); test: MetRS (C. parvum) enzyme inhibition; assay type: biochemical; conditions: read-out: (C) MetRS (C. parvum) IC50
[12] = test system: T. cruzi; test: T. cruzi growth inhibition; assay type: cell-based, Trypanosoma cruzi; conditions: read-out: (E) T. cruzi EC50
[13] = test system: G. lamblia (ATCC GL50803); test: G. lamblia growth inhibition; assay type: cell-based; conditions: Giardia duodenalis, read-out: (K) G. lamblia (ATCC GL50803) EC50
[14] = test system: T. brucei; test: T. brucei growth inhibition; assay type: cell-based, Trypanosoma brucei; conditions: read-out: (D) T. brucei EC50
[15] = test system: C. parvum; test: C. parvum growth inhibition; assay type: cell-based, Cryptosporidium parvum; conditions: read-out: (J) C. parvum EC50
[16] = test system: S. aureus (ATCC 29213); test: MBC determinations (with MIC); assay type: cell-based; conditions: Staphylococcus aureus, ATCC29213, S. aureus (ATCC 29213)
Experimental: Maximum DMSO concentrations were 0.5%. […] Each experiment's inoculum was serially diluted and plated on TSA to count competent cells. Cultures were incubated at 37° C. for at least 20 h and plated on TSA for CFU determination.
MIC/MBC: Measurements of minimum bactericidal concentrations (MBCs) were done with the S. aureus strain ATCC 29213 (Table 5).

[17] = test system: S. aureus (ATCC 29213); assay type: cell-based, Staphylococcus aureus; conditions: 8× the MIC
Experimental: Resistance frequency rates determination: The spontaneous resistance frequency rates to test compounds was determined according to published methods. Agar selection plates were made by adding compound from DMSO stocks into molten Mueller Hinton agar in a 55° C. water bath. […] The final DMSO concentration was <0.1% per plate. Plates were dried in a sterile hood for 30 minutes prior to overnight storage at 4° C., and pre-warmed in the 37° C. incubator for 1 hour prior to assay.
A fresh overnight culture was diluted 1:50 in MHB and grown at 37° C. with shaking (150 rpm) until reaching an OD600 of 0.4 correlating to ˜2×10^9 CFUs/mL. Approximately 3 mL for a total of 6*10^9 CFUs were distributed onto 4 plates for each compound. Plates were incubated at 37° C. for 72 h prior to counting of colonies. The starting inoculum was also serially diluted and plated to quantify initial bacterial load. The resistance frequency was determined as the number of compound-resistant colonies divided by the total colonies plated.
Resistance frequency rates: The propensity for S. aureus to develop resistance to MetRS inhibitors was also studied (Table 6).

[18] = test system: S. aureus; test: Serum shift assays (MIC with and without 50% human serum); assay type: cell-based, Staphylococcus aureus; conditions: Staphylococcus aureus
Experimental: Serum shift assays: To assess the role of protein binding on compound susceptibility, MIC determinations were performed in triplicate in the presence and absence of 50% human serum. Serial threefold dilutions of 2× compound were generated in MHB and aliquoted onto 96 well plates with a DMSO limit of 0.5%. Bacteria were adjusted to 1*10^8 CFUs/mL in MHB, then further diluted 1:100 in MHB and 100% heat deactivated filter sterilized pooled human serum. Fifty microliters were added to each well of the corresponding plates, and the plates were incubated at 37° C. for ˜20 h. The lowest concentration causing ≥90% growth inhibition was recorded as the MIC.

[19] = recombinant enzyme, lower limit of detection 0.025 μM, read-out: MetRS S. aureus (enzyme) IC50
[20] = 18 h, read-out: S. aureus MSSA (ATCC 29213) MIC
[21] = read-out: E. faecium VRE (ATCC 51559) MIC
[22] = CRL-8155 cells (human lymphoblasts), read-out: Mamm. cells (CRL8155) CC50
[23] = HepG2 cells (human hepatocellular carcinoma), read-out: Mamm. cells (HepG2) CC50
[24] = read-out: (B) MetRS (S. aureus) IC50
[25] = E. faecium ATCC 51559, read-out: (I) E. faecium (ATCC 51559) MIC
[26] = S. aureus ATCC 29213, read-out: (F) S. aureus (ATCC 29213) MIC

Sequence of recombinant S. aureus MetRS enzyme (A0A0H2XID2 2-657): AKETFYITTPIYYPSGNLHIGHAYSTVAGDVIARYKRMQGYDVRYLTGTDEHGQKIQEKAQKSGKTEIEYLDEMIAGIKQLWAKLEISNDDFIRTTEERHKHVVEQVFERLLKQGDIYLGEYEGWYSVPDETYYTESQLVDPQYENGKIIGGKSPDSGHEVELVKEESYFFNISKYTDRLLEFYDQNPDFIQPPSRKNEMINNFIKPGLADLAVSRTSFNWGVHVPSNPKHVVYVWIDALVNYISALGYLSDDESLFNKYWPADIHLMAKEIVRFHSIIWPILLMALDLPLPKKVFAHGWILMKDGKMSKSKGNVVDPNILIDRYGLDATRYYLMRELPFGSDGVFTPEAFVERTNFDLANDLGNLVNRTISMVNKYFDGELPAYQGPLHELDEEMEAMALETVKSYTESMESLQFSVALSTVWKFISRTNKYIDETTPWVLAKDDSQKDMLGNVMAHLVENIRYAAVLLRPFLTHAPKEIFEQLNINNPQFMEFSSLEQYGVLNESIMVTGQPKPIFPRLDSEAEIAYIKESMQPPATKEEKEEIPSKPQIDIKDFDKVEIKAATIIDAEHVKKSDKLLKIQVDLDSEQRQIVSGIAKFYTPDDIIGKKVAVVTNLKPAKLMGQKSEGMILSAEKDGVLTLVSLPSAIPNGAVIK
Sequence of MetRS (C. parvum) (Q5CVN0 entry or part of it): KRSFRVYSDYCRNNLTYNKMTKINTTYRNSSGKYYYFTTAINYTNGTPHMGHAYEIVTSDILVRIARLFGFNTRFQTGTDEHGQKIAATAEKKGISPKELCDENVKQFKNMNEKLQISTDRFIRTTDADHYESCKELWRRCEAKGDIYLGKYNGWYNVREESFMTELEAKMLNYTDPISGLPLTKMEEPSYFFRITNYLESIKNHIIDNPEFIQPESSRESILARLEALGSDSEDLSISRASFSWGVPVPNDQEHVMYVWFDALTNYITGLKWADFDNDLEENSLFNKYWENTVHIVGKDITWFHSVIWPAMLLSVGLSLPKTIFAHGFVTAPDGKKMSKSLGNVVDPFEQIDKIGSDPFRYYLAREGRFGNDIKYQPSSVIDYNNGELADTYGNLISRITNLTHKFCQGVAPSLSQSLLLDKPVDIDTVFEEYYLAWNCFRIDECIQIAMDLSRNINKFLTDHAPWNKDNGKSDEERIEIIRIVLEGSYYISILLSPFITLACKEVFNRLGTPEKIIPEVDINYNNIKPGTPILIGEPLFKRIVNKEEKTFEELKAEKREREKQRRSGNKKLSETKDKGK

| SMILES | IC50 [1, 24] [nM] | MIC [9] [µg/mL] | MIC [6, 25] [µg/mL] | IC50 [10] [nM] | IC50 [11] [nM] | EC50 ([12]; Trypanosoma cruzi) [nM] | EC50 [13] [nM] | MIC [2, 26] [µg/mL] | EC50 ([15]; Cryptosporidium parvum) [nM] | EC50 [15] [nM] | further results |
| --- | --- | --- | --- | --- | --- | --- | --- | --- | --- | --- | --- |
| Oc1cc(NCCCNCc2cc(Cl)cc(Cl)c2)nc2ccccc12 [Compound 1312, 2-((3-((3,5-dichlorobenzyl)amino)propyl)amino)quinolin-4(1H)-one] |  |  |  |  |  |  |  |  |  |  | IC50 [1, 19]: < 25 nM; MIC [2, 20]: 2.5 µg/mL (≈ 6.64 µM); MIC [3]: 0.313 µg/mL (≈ 0.832 µM); MIC [4]: 0.156 µg/mL (≈ 0.415 µM); MIC [5]: 5 µg/mL (≈ 13.3 µM); MIC [6, 21]: 0.156 µg/mL (≈ 0.415 µM); CC50 at 48 h [7, 22]: > 7.5 µg/mL; CC50 at 48 h [7, 23]: > 7.5 µg/mL |
| O=c1[nH]c(Cc2ccc(Cl)cc2Cl)cn1Cc1nc2ccc(F)nc2[nH]1 [Compound 1962, 4-(2,4-dichlorobenzyl)-1-((5-fluoro-3H-imidazo[4,5-b]pyridin-2-yl)methyl)-1,3-dihydro-2H-imidazol-2-one, reference compound] |  |  |  |  |  |  |  |  |  |  | IC50 [1, 19]: < 25 nM; MIC [2, 20]: 2.5 µg/mL (≈ 6.37 µM); MIC [3]: 5 µg/mL (≈ 12.7 µM); MIC [4]: 1.25 µg/mL (≈ 3.19 µM); MIC [5]: 5 µg/mL (≈ 12.7 µM); MIC [6, 21]: 1.25 µg/mL (≈ 3.19 µM); CC50 at 48 h [7, 22]: > 19.6 µg/mL; CC50 at 48 h [7, 23]: > 19.6 µg/mL; half-life at 1 μM ([8]; human, human liver microsomes, read-out: Microsome stability: Human T½): 25.9 min; half-life at 1 μM ([8]; mouse liver microsomes, CD-1 mouse, read-out: Microsome stability: Mouse T½): 27 min |
| CCn1c(Cc2ccc(Cl)cc2Cl)cn(Cc2nc3ccc(Cl)nc3[nH]2)c1=O [Compound 2067, 1-({5-chloro-1H-imidazo[4,5-b]pyridin-2-yl}methyl)-4-[(2,4-dichlorophenyl)methyl]-3-ethyl-2,3-dihydro-1H-imidazol-2-one] | < 25 | 1.35 (≈ 3.09 µM) | > 2 | < 40 | < 40 | 16.7 | 670 |  |  |  | (G) MRSA (ATCC33591) MIC [9]: 1.16 µg/mL; EC50 [12]: 32.3 nM |
| COc1ccc(-c2cccc3nc(Cc4nc5nc(Cl)ccc5[nH]4)cn23)c(Cl)c1 [Compound 2119, 2-({5-chloro-1H-imidazo[4,5-b]pyridin-2-yl}methyl)-5-(2-chloro-4-methoxyphenyl)imidazo[1,2-a]pyridine] | < 25 | 1.04 (≈ 2.45 µM) | 0.727 (≈ 1.71 µM) | < 40 | < 40 | 196 | 60 | 0.285 (≈ 0.672 µM) | 480 | 633 | EC50 ([14]; Trypanosoma brucei): 17.9 nM; EC50 [14]: 29.3 nM |
| COc1ccc(-c2cccc3nc(Cc4nc5nc(F)ccc5[nH]4)cn23)c(Cl)c1 [Compound 2122, 5-(2-chloro-4-methoxyphenyl)-2-({5-fluoro-1H-imidazo[4,5-b]pyridin-2-yl}methyl)imidazo[1,2-a]pyridine] | < 25 | 0.909 (≈ 2.23 µM) | 0.263 (≈ 0.645 µM) | < 40 | < 40 | 703 | 220 | 0.419 (≈ 1.03 µM) | 976 | 597 | EC50 ([14]; Trypanosoma brucei): 58.5 nM |
| COc1ccc(-c2cccc3c2CN(Cc2nc4nc(Cl)ccc4[nH]2)C3=O)c(Cl)c1 [Compound 2230, 2-((5-chloro-1H-imidazo[4,5-b]pyridin-2-yl)methyl)-4-(2-chloro-4-methoxyphenyl)isoindolin-1-one] |  | 0.165 (≈ 0.376 µM) | 0.0765 (≈ 0.174 µM) |  | < 40 | 28 | 10 | 0.393 (≈ 0.895 µM) | 211 | 196 | (F) S. aureus (ATCC 29213) MIC ([2]; S. aureus ATCC 29213): 0.304 µg/mL; (I) E. faecium (ATCC 51559) MIC ([6]; E. faecium ATCC 51559): 0.134 µg/mL; EC50 [12]: 39.6 nM |
| CO[C@@H]1[C@@H](OC(N)=O)[C@@H](O)[C@H](Oc2ccc3c(O)c(NC(=O)c4ccc(O)c(CC=C(C)C)c4)c(=O)oc3c2C)OC1(C)C [NOV, novobiocin] |  |  |  |  |  |  |  |  |  |  | MIC ([16]; MBC experiment (Table 5), read-out: MIC): 0.156 µg/mL (≈ 0.255 µM); MBC ([16]; concentration killing 99.9% of inoculum, read-out: MBC): 5 µg/mL (≈ 8.16 µM); Resistance frequency (Expt. 2) ([17]; 72 h): 1.58 × 10^−8; Resistance frequency (average or greater #) ([17]; two independent experiments): 1.58 × 10^−8; MIC ([18]; 50% human serum, read-out: Avg MIC ± SEM (+50% serum)): 12.9 ± 1.97 µg/mL; MIC ([18]; no serum, read-out: Avg MIC ± SEM (no serum)): 0.081 ± 0.02 µg/mL |
